The values that follow come from article PMC2785468, “Androgen Receptor Mutations Associated with Androgen Insensitivity Syndrome: A High Content Analysis Approach Leading to Personalized Medicine” (PLoS ONE, 2009).

The assay has as its target T1, AR-R840C (Homo sapiens, UniProt P10275, R841C).
T1 construct: expressed in transfected cells
T1 sequence (P10275 1-920 R841C): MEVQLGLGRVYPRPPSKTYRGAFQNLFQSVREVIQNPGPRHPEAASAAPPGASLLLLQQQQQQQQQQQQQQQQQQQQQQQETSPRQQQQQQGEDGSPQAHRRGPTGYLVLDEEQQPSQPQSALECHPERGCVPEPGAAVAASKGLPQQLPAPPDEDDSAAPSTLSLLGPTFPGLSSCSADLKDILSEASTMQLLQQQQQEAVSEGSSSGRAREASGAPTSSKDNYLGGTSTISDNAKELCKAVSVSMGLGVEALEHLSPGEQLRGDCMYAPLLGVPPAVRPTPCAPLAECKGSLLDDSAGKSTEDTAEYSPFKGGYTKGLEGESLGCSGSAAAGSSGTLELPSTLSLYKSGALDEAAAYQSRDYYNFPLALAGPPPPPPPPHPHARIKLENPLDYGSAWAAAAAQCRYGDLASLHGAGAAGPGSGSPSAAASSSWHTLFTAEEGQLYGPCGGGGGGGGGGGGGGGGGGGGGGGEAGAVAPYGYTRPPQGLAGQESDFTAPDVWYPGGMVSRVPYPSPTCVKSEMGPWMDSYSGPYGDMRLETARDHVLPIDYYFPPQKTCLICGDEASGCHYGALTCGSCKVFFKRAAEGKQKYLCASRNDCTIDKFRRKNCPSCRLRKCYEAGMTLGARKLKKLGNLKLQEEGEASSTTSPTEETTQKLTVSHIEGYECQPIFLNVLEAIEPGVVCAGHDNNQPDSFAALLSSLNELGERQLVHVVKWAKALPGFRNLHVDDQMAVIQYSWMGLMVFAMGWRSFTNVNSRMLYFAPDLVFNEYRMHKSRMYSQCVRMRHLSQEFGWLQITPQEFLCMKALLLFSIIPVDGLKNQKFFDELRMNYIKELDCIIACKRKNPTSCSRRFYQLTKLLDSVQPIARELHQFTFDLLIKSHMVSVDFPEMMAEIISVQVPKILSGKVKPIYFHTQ
It counts as cell-based. As to the method: To determine the global effect of the various AIS mutations on AR signaling, each was analyzed using HCA. This technology allows simultaneous quantification of AR protein expression, nuclear translocation, subnuclear patterning, and transcriptional activity. The analysis was done in HeLa cell lines stably transfected with wild type or mutant ARs fused with green fluorescent protein, or using AR immunofluorescence in primary cultures of genital skin fibroblasts generated from foreskin biopsies of historical AIS patients, or of normal neonates undergoing circumcision at birth. To prevent the effects of receptor over-expression, stable HeLa cells were carefully selected to express AR levels similar to LNCaP as previously described. Prior to ligand treatment, HeLa cells were transfected with the pARR2PB-dsRED2skl reporter plasmid, consisting of the AR responsive promoter ARR2PB [31] driving expression of the red fluorescent protein reporter dsRED2skl engineered to target peroxisomes.
For studies utilizing HeLa GFP-AR cell lines, twenty-four hours before transfection with pARR2PB-dsRED2skl, cells were plated onto 100 mm plastic dishes in medium supplemented with 5% charcoal-stripped and dialyzed-FBS. Transient introduction of the pARR-2PB-dsRED2skl reporter construct was performed using 6.0 µg reporter plasmid and 6.0 µg carrier DNA (BlueScript, Stratagene, San Diego, CA) using Transfectin (Biorad) following standard protocols. After 8-hour incubation, DNA/lipid complexes were removed. Cells were then trypsinized and replated at 10,000 cells per well in Nunc poly-D-lysine treated 96-well optical glass bottom plates and incubated an additional 12 hours to allow for cell adhesion. […] Compound dilutions and final addition to multi-well plates were performed using a Beckman Biomek NX robotic platform to ensure repeatability from experiment to experiment. After incubation was complete, using the Biomek NX robot, plates were washed with PBS and fixed for 20 min at RT in 4% formaldehyde prepared in CSK buffer (80 mM potassium PIPES, pH 6.8, 5 mM EGTA, 2 mM MgCl2). After fixation, cells were briefly permeabilized (5 min) with 0.5% Triton-X and prepared for imaging by washing in PBS, aspirating the washed solution, and adding a 1 ng/ml DAPI solution to stain DNA and a generic protein stain (CellMask, Invitrogen) to facilitate cell and nuclear image segmentation. Cells were imaged in PBS.
Cells were imaged using the Cell Lab IC-100 Image Cytometer (IC-100; Beckman Coulter) platform that consists of 1) Nikon Eclipse TE2000-U Inverted Microscope (Nikon; Melville, NY); 2) Chroma 82000 triple band filter set (Chroma; Brattleboro, VT); 3) an imaging camera: Hamamatsu ORCA-ER Digital CCD camera (Hamamatsu; Bridgewater, NJ); and 4) a focusing camera: Photonics COHU Progressive scan camera (Photonics; Oxford, MA). […] In general, 49 to 64 images were captured per well for image analysis.
While our initial AR studies using HTM were based upon CytoShop (Beckman-Coulter), [15], [33], these approaches were refined in the current work with the more robust server-client Pipeline Pilot image analysis platform (Basic and Advanced Imagine Collections, Pipeline Pilot 7.5, Accelrys, San Diego). Initially, the background signal was removed from all images using plate- and channel-specific correction images, generated by the sum projection of >600 randomly selected images for each channel from the image set. This allows for a pixel-by-pixel background subtraction that compensates any consistent uneven background artifacts in the image set. Furthermore, users are able to customize the degree of background subtraction by applying a multiplier to each correction image, useful for identification of objects such as nuclei or cell borders. After background subtraction, nuclear masks were generated using a combination of non-linear least squares and watershed-from-markers image manipulations of the DAPI images (Fig. 1B).

On to `C[C@@H]1CC2=CC(=O)CC[C@@H]2[C@H]2CC[C@@]3(C)[C@@H](CC[C@]3(C)O)[C@@H]21` [Mb, Mibolerone], for which, where the note is “HeLa AR-R840C”, the hyperspeckling is recorded as 8 fold increase and the transcriptional activation is reported as 11 fold. Where the note is “HeLa AR-R840C, vs untreated”, the “increase in nuclear translocation” value stood at 29%. Also, under “HeLa R840C, % signal present in the nucleus”, the “Nuclear Translocation, Max” value was found to be 63.7±1.1%. Besides, the “Hyperspeckling, Max” value (HeLa R840C, absolute numerical measurement) is 269±20. Moreover, where the note is “HeLa R840C, pARR2PB-dsRED2skl reporter, absolute numerical measurement”, the “Transcriptional Activity, Max” value is 35.3±1.4.
